Key:
A549 cells [1] = experiment: Cell cycle analysis, PI/RNase, flow cytometry; assay type: cell-based, human; settings: 48 h
Method: Cell cycle regulation is an essential process in maintaining normal bodily functions and is often disturbed in cancer cells. The inducement of cell cycle arrest is considered a key avenue for targeted cancer therapy. As a novel enmein-type diterpenoid derivative with remarkable anti-proliferative effects against A549 cells, 7h may have the ability to induce cell cycle arrest. Therefore, A549 cells were treated with 7h, stained with PI/RNase solution, and analyzed for their cell cycle distribution by flow cytometry.
A549 cells were inoculated into 24-well plates and attached via cell adhesion. Then, gradient concentrations (0, 2, 4, and 8 µM) of 7h were added and the cells were co-incubated for 48 h. The cells were cleaned with ice-cold phosphate buffer solution (PBS), digested with trypsin, collected, and prepared as a cell suspension. The cell suspension was treated with PI/RNase staining solution, the data were gathered using a flow cytometer (FACS Calibur, BD, Milpitas, CA, USA), and the cell cycle distribution was analyzed using Flow Jo software. Three attempts were performed for each treatment to eliminate experimental bias.

L-02 cells = experiment: MTT anti-proliferative assay, normal L-02 cells; assay type: cell-based; settings: means ± SD of three experiments
Method: (§1) A series of novel enmein-type diterpenoid derivatives, 5a–m, were synthesized by introducing a side chain containing a carbamate moiety at the C-6 position of compound 4. The anticancer activities of 5a–m were tested against three human cancer cell lines and one human normal cell line by MTT assay.
(§2) Human non-small cell lung cancer cell lines (A549), human liver cancer cell lines (HepG2), human breast cancer cell lines (MCF-7), and human normal cell lines (L-02) were purchased from the cell bank of the Chinese Academy of Sciences. All cells were placed in RPMI-1640 medium (added 10% fetal bovine serum, […]) and cultured in an aseptic environment with 5% CO2 at 37 °C.
(§3) All derivatives were evaluated for their anti-proliferative activities against three cancer cell lines and one normal cell line by MTT assay. The cells in the logarithmic growth phase were inoculated into 96-well plates (3 × 10^3 cells/well) and incubated for 48 h in a sterile environment with 5% CO2 at 37 °C to make them attach via cell adhesion; then, the cells were co-incubated with target compounds for 48 h. After that, MTT solution (10 µL/well) was added to the cell culture medium to continue incubation for 4 h, following which the medium was replaced with DMSO (150 µL/well). The absorbance values at 490 nm were determined using an enzyme meter (Safire 2, Tecan, Männedorf, Switzerland) and further converted to half-inhibitory concentration values of these compounds.

A549 cells [2] = experiment: MTT anti-proliferative assay, A549; assay type: cell-based, human
Method: as §1, §2, §3

A549 cells [3] = experiment: ROS content, H2DCFDA staining; assay type: cell-based, human; settings: A549, 2, 4 and 8 µM, 48 h, flow cytometry
Method: Reactive oxygen species (ROS) are secondary metabolites of cells and are closely linked to the regulation of multiple biological activities. Elevated intracellular ROS levels are thought to be a hallmark of apoptosis. To determine whether 7h could affect the ROS content in cancer cells, the A549 cells were treated with different concentrations (0, 2, 4, and 8 µM) of 7h and then stained with H2DCFDA.
Flow cytometry was used to detect changes in intracellular reactive oxygen species content, and the results are shown in Figure 5b,c.
A549 cells were inoculated into 24-well plates and attached via cell adhesion. Then, gradient concentrations (0, 2, 4, and 8 µM) of 7h were added and the cells were co-incubated for 48 h. The cells were cleaned with ice-cold PBS, stained with H2DCFDA, mixed, and incubated in cells for 20 min in darkness at 25 °C. The apoptosis morphology of the cells in each group was observed and photographed using a laser confocal microscope (LSM710, Zeiss, Oberkochen, Germany).
A549 cells were inoculated into 6-well plates and attached via cell adhesion. Then, gradient concentrations (0, 2, 4, and 8 µM) of 7h were added and the cells were co-incubated for 48 h. […] The experimental data were gathered using flow cytometry (FACS Calibur, BD, Milpitas, CA, USA) and analyzed using Flow Jo software. […]

HepG2 cells = experiment: MTT anti-proliferative assay, HepG2; assay type: cell-based, human
Method: as §1, §2, §3

MCF-7 cells = experiment: MTT anti-proliferative assay, MCF-7; assay type: cell-based; settings: Homo sapiens, MCF7, 48 h, means ± SD of three experiments
Method: as §1, §2, §3

## C=C1C(=O)C23C(=O)OC45CCC(C)(C)C6C(OC(=O)CCC(=O)N7CCC(c8noc9cc(F)ccc89)CC7)OCC64C2CCC1C3O5 (single isomer, unassigned; ent-6) [Compound 7h, ent-6β,14α-Dihydroxy-(1,7–1,14)-epoxy-7,15-dioxo-6,20-hemiketal-6,7-seco-16-kaurene-6β-yl 4-(4-(6-fluorobenzo[d]isoxazol-3-yl)piperidin-1-yl)-4-oxobutanoate]
A549 cells [1]; A549, 2 µM
  cells in G0/G1 phase: 62.99%
  cells in G2/M phase: 16.21%
  cells in S phase: 20.80%
A549 cells [1]; A549, 4 µM
  cells in G0/G1 phase: 71.04%
  cells in G2/M phase: 17.63%
  cells in S phase: 11.33%
A549 cells [1]; A549, 8 µM
  cells in G0/G1 phase: 89.87%
  cells in G2/M phase: 3.93%
  cells in S phase: 6.10%
L-02 cells; Homo sapiens, L02, 48 h
  IC50: > 100 µM
L-02 cells; human normal cells, 48 h
  IC50: > 50 µM
A549 cells [2]; A549 cells
  fold better than parental compound 4 (A549 IC50): 11.03 fold
A549 cells [2]; Homo sapiens, A549, MTT, 48 h, means ± SD of three experiments
  IC50: 2160 ± 1400 nM
A549 cells [3]
  intracellular ROS content: increased significantly in a dose-dependent manner
HepG2 cells; HepG2 cells
  anticancer activity in words, HepG2: low micro-molar-level anticancer activities
HepG2 cells; Homo sapiens, HepG2, MTT, 48 h, means ± SD of three experiments
  IC50: 6.1 ± 1.24 µM
MCF-7 cells
  IC50: 6.74 ± 1.94 µM

— publication PMC11396751, “Design, Synthesis, and Anticancer Activity of Novel Enmein-Type Diterpenoid Derivatives Targeting the PI3K/Akt/mTOR Signaling Pathway” (Molecules, 2024)
